This assay deals with T1, human Npt2a (Homo sapiens, UniProt Q06495).
T1 construct: expressed in transfected cells
T1 sequence (Q06495 1-639): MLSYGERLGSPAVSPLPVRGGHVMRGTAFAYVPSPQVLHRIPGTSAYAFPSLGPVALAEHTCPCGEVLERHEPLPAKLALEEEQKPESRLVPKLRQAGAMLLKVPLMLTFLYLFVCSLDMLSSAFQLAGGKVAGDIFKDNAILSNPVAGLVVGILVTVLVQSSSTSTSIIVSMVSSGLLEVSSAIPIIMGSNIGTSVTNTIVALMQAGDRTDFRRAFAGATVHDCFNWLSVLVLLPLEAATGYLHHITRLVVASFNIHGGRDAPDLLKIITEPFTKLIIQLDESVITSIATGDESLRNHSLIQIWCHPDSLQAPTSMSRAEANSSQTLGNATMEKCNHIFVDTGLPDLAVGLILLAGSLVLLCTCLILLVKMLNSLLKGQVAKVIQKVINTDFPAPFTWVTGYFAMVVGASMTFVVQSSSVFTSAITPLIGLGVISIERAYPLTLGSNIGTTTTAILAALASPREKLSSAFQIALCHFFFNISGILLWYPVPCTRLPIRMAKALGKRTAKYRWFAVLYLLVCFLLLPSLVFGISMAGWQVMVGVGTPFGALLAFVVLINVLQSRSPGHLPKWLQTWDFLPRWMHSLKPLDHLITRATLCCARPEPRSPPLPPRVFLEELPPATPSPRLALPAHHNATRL
Put plainly: Npt2a activity cell based assay, membrane potential dye, CHO T-REx hNpt2a cells. The following applies: doxycycline-induced, depolarization by sodium phosphate influx, average or median values if tested more than once. The gist of the method: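 Cells were doxycycline-induced CHO T-REx hNpt2a, dye-loaded and pretreated 5 min at RT with 1 nM–50 μM compound in Na-free pH 7.4 buffer. IC50 was fit to the post/pre-trigger fluorescence ratio.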
Usually IC50 stands for the concentration that gives 50% inhibition. A lower IC50 goes with inhibition by little substance. Take `Cc1cc(C)n(-c2cc(Nc3c(C)c(-c4ccc(F)cn4)nn3CC3CC3)ncn2)n1` [Example 421, N-[1-(cyclopropylmethyl)-3-(5-fluoropyridin-2-yl)-4-methyl-1H-pyrazol-5-yl]-6-(3,5-dimethyl-1H-pyrazol-1-yl)pyrimidin-4-amine]: the IC50 was determined as 410 nM.

Consider `Cc1cc(C(F)F)n(-c2cc(Nc3c(C)c(-c4ccc(F)cn4)nn3CC3CC3)ncn2)n1` [Example 422, N-[1-(cyclopropylmethyl)-3-(5-fluoropyridin-2-yl)-4-methyl-1H-pyrazol-5-yl]-6-[5-(difluoromethyl)-3-methyl-1H-pyrazol-1-yl]pyrimidin-4-amine], for which the IC50 is 240 nM.

Molecule `Cc1nn(-c2cc(Nc3c(C)c(-c4ccc(F)cc4)nn3CC3CC3)ncn2)c(C)c1S(C)(=O)=O` [Example 423, N-[1-(cyclopropylmethyl)-3-(4-fluorophenyl)-4-methyl-1H-pyrazol-5-yl]-6-[3,5-dimethyl-4-(methylsulfonyl)-1H-pyrazol-1-yl]pyrimidin-4-amine] came in with an IC50 of 55 nM.

The molecule `Cc1c(Nc2cc(-n3cc(C(F)(F)F)cn3)ncn2)nn(C)c1-c1ccc(F)cc1` [Example 424, N-[5-(4-fluorophenyl)-1,4-dimethyl-1H-pyrazol-3-yl]-6-[4-(trifluoromethyl)-1H-pyrazol-1-yl]pyrimidin-4-amine] gave an IC50 of 370 nM.

As to `Cc1c(-c2ccc(F)cc2)nn(CC2CC2)c1Nc1cc(-n2cc(C(F)(F)F)cn2)ncn1` [Example 426, N-[1-(cyclopropylmethyl)-3-(4-fluorophenyl)-4-methyl-1H-pyrazol-5-yl]-6-[4-(trifluoromethyl)-1H-pyrazol-1-yl]pyrimidin-4-amine], the IC50 amounted to 59 nM.

Consider `Cc1c(-c2ccc(F)cc2)nn(C)c1Nc1cc(-n2cc(C(F)(F)F)cn2)ncn1` [Example 427, N-[3-(4-fluorophenyl)-1,4-dimethyl-1H-pyrazol-5-yl]-6-[4-(trifluoromethyl)-1H-pyrazol-1-yl]pyrimidin-4-amine], for which it took 15 nM to reach half-maximal inhibition (IC50).

The molecule `COc1c(-c2ccc(C#N)cc2)nn(C)c1Nc1cc(-n2nc(C)c(CC(C)(C)O)c2C)ncn1` [Example 428, 4-[5-({6-[4-(2-hydroxy-2-methylpropyl)-3,5-dimethyl-1H-pyrazol-1-yl]pyrimidin-4-yl}amino)-4-methoxy-1-methyl-1H-pyrazol-3-yl]benzonitrile] displayed an IC50 of 550 nM.

Regarding `Cc1nn(-c2cc(Nc3c(C)c(-c4ccc(F)cc4)nn3CC3CC3)ncn2)c(C)c1O` [Example 429, 1-(6-{[1-(cyclopropylmethyl)-3-(4-fluorophenyl)-4-methyl-1H-pyrazol-5-yl]amino}pyrimidin-4-yl)-3,5-dimethyl-1H-pyrazol-4-ol], the IC50 was found to be 17 nM.

Consider `CSc1cc(-c2nn(CC3CC3)c(Nc3cc(-n4nc(C)cc4C)ncn3)c2C)ccc1F` [Example 430, N-{1-(cyclopropylmethyl)-3-[4-fluoro-3-(methylsulfanyl)phenyl]-4-methyl-1H-pyrazol-5-yl}-6-(3,5-dimethyl-1H-pyrazol-1-yl)pyrimidin-4-amine], for which the IC50 turned out to be 45 nM.

For `Cc1c(-c2ccc(F)cc2)nn(CC2CC2)c1Nc1cc(-n2ncc3c2CN(C(=O)OC(C)(C)C)C3)ncn1` [Example 431, tert-butyl 1-(6-{[1-(cyclopropylmethyl)-3-(4-fluorophenyl)-4-methyl-1H-pyrazol-5-yl]amino}pyrimidin-4-yl)-4,6-dihydropyrrolo[3,4-c]pyrazole-5(1H)-carboxylate], the IC50 stood at 69 nM.

Turning to `Cc1cc(C(F)F)n(-c2cc(Nc3nn(C)c(-c4ccc(C(F)F)cc4)c3C)ncn2)n1` [Example 432, 6-[5-(difluoromethyl)-3-methyl-1H-pyrazol-1-yl]-N-{5-[4-(difluoromethyl)phenyl]-1,4-dimethyl-1H-pyrazol-3-yl}pyrimidin-4-amine], the IC50 was determined as 320 nM.

For the origin of these results see patent publication US11208400B2, “Substituted 6-(1H-pyrazol-1-yl)pyrimidin-4-amine derivatives and uses thereof” (Bayer Aktiengesellschaft, priority 2016, dated 2021).
